From paper PMC8160793, “Potent Antimicrobial and Antibiofilm Activities of Feleucin-K3 Analogs Modified by α-(4-Pentenyl)-Ala against Multidrug-Resistant Bacteria” (Biomolecules, 2021)
≈ marks a conversion by molar mass, not a printed value. Square brackets hold non-standard residues; d marks the D form. Peptide text beside a SMILES is read from it. ξ: configuration not given here. ξαMeGly(pent-4-enyl) = C=CCCCC(C)(N)C(=O)O

Legend:
S. aureus ATCC 25923 = format: cell-based, Staphylococcus aureus; details: ATCC 25923, 24 h
Description: (§1) The antibiofilm activity of the peptides was determined according to the previously described methods. Strains (final concentration of 5 × 10^5 CFU/mL) and peptides (4–128 μg/mL) were incubated for 24 h at 37 °C. Biofilm cells were cleaned with 0.01-M PBS and fixed with methanol. Crystal violet (0.1%, HopeBiol, Qingdao, China) was used to stain the biofilm cells for 10 min. After washing with water, 95% ethanol was finally added, and the optical density at 595 nm was measured with a microplate reader (Flex Station 3; Laguna Hills, CA, USA).

MRSA ATCC 33591 = format: cell-based, Staphylococcus aureus; details: ATCC 33591, 24 h
Description: as §1

P. aeruginosa ATCC 27853 = format: cell-based, Pseudomonas aeruginosa; details: ATCC 27853, 18 h
Description: The minimum inhibitory concentration (MIC) of the Feleucin-K3 analogs was tested by the broth microdilution method. Sensitive bacteria and drug-resistant bacteria were diluted to 1 × 10^6 CFU/mL, according to the McFarland standards. Bacterial suspension and peptide solutions (8–128 μg/mL) were incubated at 37 °C for 18 h. The minimum concentration without obvious bacterial growth was the MIC of the peptides. The stability of the analogs in a physiological salt environment was also investigated. In brief, salt powder (450-mM NaCl) was dissolved in deionized water, and the following investigational steps were the same as those described before. The above steps were repeated several times, until the same value was obtained three times.

A. baumannii 91199 = format: cell-based, Acinetobacter baumannii; details: 91199, 18 h
Procedure, shortened: (§2)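 Broth microdilution MIC: bacteria diluted to 1 × 10^6 CFU/mL per McFarland standards, incubated with peptide (8–128 μg/mL) at 37 °C for 18 h. MIC taken as the lowest concentration without obvious growth. Salt stability tested the same way with 450-mM NaCl; repeated until the same value was obtained three times.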

A. baumannii 91869 = format: cell-based, Acinetobacter baumannii; details: 91869, 18 h
Procedure, shortened: as §2

A. baumannii 98110 = format: cell-based, Acinetobacter baumannii; details: 98110, 18 h
Procedure, shortened: as §2

A. baumannii 91944 = format: cell-based, Acinetobacter baumannii; details: 91944, 18 h
Procedure, shortened: as §2

A. baumannii 9331 = format: cell-based, Acinetobacter baumannii; details: 9331, 18 h
Procedure, shortened: as §2

A. baumannii 8309 = format: cell-based, Acinetobacter baumannii; details: 8309, 18 h
Procedure, shortened: as §2

A. baumannii 91105 = format: cell-based, Acinetobacter baumannii; details: 91105, 18 h
Procedure, shortened: as §2

A. baumannii 92359 = format: cell-based, Acinetobacter baumannii; details: 92359, 18 h
Procedure, shortened: as §2

C=CCCCC(C)(N)C(=O)N[C@@H](CC(C)C)C(=O)N[C@@H](CCCCN)C(=O)N[C@@H](CC(C)C)C(=O)N[C@@H](CC(C)C)C(=O)N[C@@H](CCCCN)C(=O)N[C@@H](CCCCN)C(=O)N[C@@H](CC(C)C)C(=O)N[C@@H](CC(C)C)C(N)=O (some centres unmarked) [Feleucin-K65] (H-[ξαMeGly(pent-4-enyl)]LKLLKKLL-NH2)
MBIC50, S. aureus ATCC 25923 (S. aureus ATCC 25923): 8 µg/mL | MBIC90, S. aureus ATCC 25923 (S. aureus ATCC 25923): 16 µg/mL | MBIC50, MRSA ATCC 33591 (MRSA ATCC 33591): 8 µg/mL | MBIC90, MRSA ATCC 33591 (MRSA ATCC 33591): 8 µg/mL | MIC, P. aeruginosa ATCC 27853 (P. aeruginosa ATCC 27853): 8 mg/L (≈ 7.23 µM) | MIC, A. baumannii 91199 (A. baumannii 91199): 4 mg/L (≈ 3.61 µM) | MIC, A. baumannii 91869 (A. baumannii 91869): 4 mg/L (≈ 3.61 µM) | MIC, A. baumannii 98110 (A. baumannii 98110): 4 mg/L (≈ 3.61 µM) | MIC, A. baumannii 91944 (A. baumannii 91944): 4 mg/L (≈ 3.61 µM) | MIC, A. baumannii 9331 (A. baumannii 9331): 8 mg/L (≈ 7.23 µM) | MIC, A. baumannii 8309 (A. baumannii 8309): 4 mg/L (≈ 3.61 µM) | MIC, A. baumannii 91105 (A. baumannii 91105): 4 mg/L (≈ 3.61 µM) | MIC, A. baumannii 92359 (A. baumannii 92359): 4 mg/L (≈ 3.61 µM)

C=CCCCC(C)(NC(=O)[C@H](CC(C)C)NC(=O)[C@H](CCCCN)NC(=O)[C@H](CCCCN)NC(=O)[C@H](CC(C)C)NC(=O)[C@H](CC(C)C)NC(=O)[C@H](CCCCN)NC(=O)[C@H](CC(C)C)NC(=O)[C@@H](N)Cc1ccccc1)C(N)=O (some centres unmarked) [Feleucin-K70] (H-FLKLLKKL[ξαMeGly(pent-4-enyl)]-NH2)
MBIC50, S. aureus ATCC 25923 (S. aureus ATCC 25923): 4 µg/mL | MBIC90, S. aureus ATCC 25923 (S. aureus ATCC 25923): 8 µg/mL | MBIC50, MRSA ATCC 33591 (MRSA ATCC 33591): 4 µg/mL | MBIC90, MRSA ATCC 33591 (MRSA ATCC 33591): 8 µg/mL | MIC, P. aeruginosa ATCC 27853 (P. aeruginosa ATCC 27853): 8 mg/L (≈ 7.01 µM) | MIC, A. baumannii 91199 (A. baumannii 91199): 8 mg/L (≈ 7.01 µM) | MIC, A. baumannii 91869 (A. baumannii 91869): 8 mg/L (≈ 7.01 µM) | MIC, A. baumannii 98110 (A. baumannii 98110): 8 mg/L (≈ 7.01 µM) | MIC, A. baumannii 91944 (A. baumannii 91944): 8 mg/L (≈ 7.01 µM) | MIC, A. baumannii 9331 (A. baumannii 9331): 16 mg/L (≈ 14 µM) | MIC, A. baumannii 8309 (A. baumannii 8309): 8 mg/L (≈ 7.01 µM) | MIC, A. baumannii 91105 (A. baumannii 91105): 4 mg/L (≈ 3.51 µM) | MIC, A. baumannii 92359 (A. baumannii 92359): 8 mg/L (≈ 7.01 µM)
